Where two headings read alike, the source gives them in different places.

A short description of series [1]: Rat pharmacokinetics after single intraperitoneal injection of 100 mg/kg. The class given is in vivo, Sprague–Dawley rats. How it is done: The pharmacokinetics of TRX-E-002-1 was evaluated in male female Sprague–Dawley rats following a single intraperitoneal injection of 100 mg/kg TRX-E-002-1 in 20% SBECD vehicle. Absorption was rapid, with C max mean plasma concentrations reached 0.25/1 h after dosing in female/male rats. […] Mean plasma levels decreased to below the limit of quantification by 24 h (not shown). The AUC0−∞ value was 29,537 and 44,702 ng h/mL in female and male rats, respectively (Table 2). High tissue levels were observed 0.5–6 h after dosing, with levels higher than the plasma concentration in pancreas, ovaries, large intestine, skin, kidneys, liver, stomach and adrenal glands (not shown). Treatment of plasma and tissue samples with glucuronidase indicated the presence of low levels of a glucuronide conjugate of TRX-E-002-1 (not shown). Other metabolic pathways have not yet been investigated. […] Parent drug was excreted in the urine and faeces, and high levels of the glucuronide metabolite were found in the faeces.
Tissue concentrations of total drug (parent + glucuronide) were also similar to those in plasma except in liver, where they were 2–3 times higher.

Series [2] relates to disseminated ovarian cancer model. The experiment in a line: Disseminated ovarian cancer model, intraperitoneal dosing. The class given is in vivo, mice. The source says:
In vivo, TRX-E-002-1, formulated in 20% SBECD, was active in a disseminated ovarian cancer model and a recurrent ovarian cancer model in which tumour recurrence is investigated following initial treatment of the OCSC2-inoculated mice with paclitaxel. In both models, TRX-E-002-1 inhibited tumour growth following once daily intraperitoneal administration.
The combination of TRX-E-002-1 and cisplatin was investigated in the murine model of disseminated ovarian cancer.

A short description of series [3]: Dog 14-day pilot toxicity study with toxicokinetics, intraperitoneal. The conditions noted are these: dog M + F, Day 1.
Experimental: For the dog 14-day pilot study, male and female beagle dogs were dosed once daily with intraperitoneal injections of vehicle (1:2 dilutions of 20% SBECD in 0.9% saline) or Cantrixil (10, 30 or 100 mg/kg) for 14 days. The doses were administered via an implanted catheter.
Series [4] in a line: Second dog pharmacokinetic study, 10 mg/kg intraperitoneal, four dogs. The settings on record: dog M + F, 10 mg/kg i.p., second study. The class given is in vivo, beagle dogs. The procedure:
In beagle dogs, plasma concentrations of unconjugated TRX-E-002-1 at early time points (1–4 h’ post-dose) were 76–93% of the total levels (parent + glucuronide). At 8 h, the plasma concentrations of the glucuronide metabolites were similar to those of parent drug. By 24 h’ post-dose, the concentrations of TRX-E-002-1-glucuronide in plasma and gastrointestinal tissues (except colon) were 2–12 times higher than those of the parent drug. The increased levels of TRX-E-0021-glucuronide relative to those of parent drug at 24 h post-dose may reflect slower elimination of the glucuronide metabolites.

In series [5] the test system is micronucleated polychromatic erythrocytes (PCEs) in bone marrow. As to the kind of experiment: Bone marrow micronucleus test. The class given is in vivo, ARC(S) Swiss mice. The settings on record: positive control group. How it is done:
The assays were performed in compliance with GLP regulations.
The bone marrow micronucleus test was the in vivo part of the ICH genotoxicity testing battery and was conducted in ARC(S) Swiss mice. Eight groups of mice (10/sex/group) were given an intraperitoneal injection of vehicle (20% w/v SBECD) or Cantrixil at 50, 200 or 400 mg/kg and were killed 24 or 48 h later. Dimethyl-1,2 benzanthracene was used as the positive control. After preparation of the bone marrow cells, the number of micronucleated polychromatic erythrocytes (PCEs) was determined in 4000 PCEs per animal, and the proportion of PCEs in the total erythrocyte population in bone marrow was calculated from the examination of at least 500 erythrocytes as an index of bone marrow toxicity. […] The proportion of PCEs in the total erythrocyte population was decreased in both sexes at the 200 and 400 mg/kg doses at both kill times. TRX-E-002-1 is therefore considered clastogenic in this system at the described concentrations in vivo [the equivalent 200/400 mg/kg dose in a […] is 16.2 mg/kg (600 mg/m^2)/32.4 mg/kg (1200 mg/m^2) in a 60-kg human].

In another series the test system is c-Jun N-terminal kinase. Details: method as in PMID 27196760. The conditions noted are these: cited from earlier work.
The test system of series [6] is mouse lymphoma L5178Y cells. As to the kind of experiment: In vitro mammalian cell mutation assay, thymidine kinase locus. How it is done: Genotoxicity testing of TRX-E-002-1 was performed in an ICH-compliant test battery (see ICH Guideline S2A), comprising an in vitro bacterial reverse mutation test, an in vitro mammalian cell mutation assay and an in vivo rodent bone marrow micronucleus assay. The assays were performed in compliance with GLP regulations.
The in vitro mammalian cell mutation assay utilised the forward mutation system at the thymidine kinase locus of the mouse lymphoma L5178Y cells using a microtitre cloning technique. TRX-E-002-1 was tested in three experimental conditions: 3-h incubation at 37 °C with and without metabolic activation system (Aroclor-induced rat liver S9 mix), and a 24-h incubation without metabolic activation (i.e. continuous treatment).

The mark [7] stands for this setting: female rats, 100 mg/kg i.p., plasma.
Setting [8] is: 10 μM SP600125, OCSC2 cells, Western blot.

As to `COc1cc(C2COc3c(ccc(O)c3C)C2c2ccc(O)cc2)cc(OC)c1O` (racemic) [TRX-E-002], in series [1] (setting [7]), the AUClast is listed as 29,396 ng h/mL and the C max is reported as 8355 ng/mL. The elimination half-life entry in series [1] (rats, interspecies comparison) is recorded as “about 2.5 h”. Also, the tumour growth entry in series [2] (100 mg/kg i.p. once daily in 20% SBECD for 13–14 days) is listed as “significantly inhibited”. For the same compound, in series [3] (10 mg/kg i.p.), the “AUC0−∞” value is 4395 ng·h/mL, the AUClast worked out at 4390 ng·h/mL, the C max amounted to 626 ng/mL and the T max was 2.0 h. For the same compound, the “T ½” value in series [3] (10 mg/kg i.p.) is 2.6 h. Also, in series [3] (30 mg/kg i.p.), the “AUC0−∞” value is listed as 11,300 ng h/mL, the AUClast is 8770 ng·h/mL, the T max is recorded as 2.0 h and the “T ½” value is on record as 2.5 h. In addition, in series [3] (100 mg/kg i.p.), the “AUC0−∞” value was 58,550 ng h/mL, the AUClast is recorded as 58,500 ng h/mL, the C max is 6795 ng/mL and the T max was determined as 1.25 h. For the same compound, the “T ½” value in series [3] (100 mg/kg i.p.) turned out to be 2.2 h. Besides, in series [4], the “AUC0−∞” value is 1633 ng·h/mL, the AUClast came to 1630 ng·h/mL, the C max is 425 ng/mL and the T max was determined as 2 h. Besides, in series [4], the “T ½” value was determined as 2.6 h.
For the compound `Cc1c2ccccc2c(C)c2c1ccc1ccccc12` [Dimethyl-1,2 benzanthracene, reference compound], in series [5], the “frequency of micronucleated PCEs” value is “statistically significant increase” and the “proportion of PCEs” value is reported as “reduction”.
On to `Oc1c2ccccc2c2c3c(cccc13)N=N2` [SP600125], for which, in the series on c-Jun N-terminal kinase (setting [8]), the “TRX-E-002-1-induced phosphorylation of c-Jun” value is “inhibited” and the “phosphorylation of ERK” value was “without affecting”. Besides, the “effect on anti-tumour activity of 0.245 μM TRX-E-002-1” value in the series on c-Jun N-terminal kinase (OCSC2 cells) is “blocked”.
Regarding `N.N.[Cl][Pt][Cl]` [cisplatin, reference compound], in series [2] (TRX-E-002-1 100 mg/kg once daily, cisplatin 5 mg/kg once weekly, or both), the “tumour growth during the 16-day treatment period” value is recorded as “significantly inhibited”. In addition, in series [2] (after 16-day treatment, TRX-E-002-1 100 mg/kg once daily, cisplatin 5 mg/kg once weekly, or both), the “tumour growth during the 5-week post-treatment period” value is “decreased”.
In the case of `O=P1(N(CCCl)CCCl)NCCCO1` (centres unmarked) [cyclophosphamide], the mutant frequency result in series [6] (positive control, presence of S9) was “expected increases”.
For the compound `COS(C)(=O)=O` [methyl methanesulfonate], in series [6], the mutant frequency result is “expected increases”.

Values taken from publication PMC5306062, “Pharmacology and toxicology of the novel investigational agent Cantrixil (TRX-E-002-1)” (Cancer Chemotherapy and Pharmacology, 2016).
